Tests used:
Aro1EPSPS = molecular target: T1, Aro1EPSPS (Candida albicans, UniProt Q5AME2); assay: X-ray crystal structure, […] A; assay type: binding; details: co-crystallised with 1 mM shikimate-3-phosphate, pH 8; closed conformation
T1 construct: gene ARO1; EPSPS domain, residues 387-844, expressed in E. coli BL21(DE3) Gold, His6-TEV tag cut; strain SC5314 printed for the full-length clone pLC1335
T1 sequence (Q5AME2 387-844): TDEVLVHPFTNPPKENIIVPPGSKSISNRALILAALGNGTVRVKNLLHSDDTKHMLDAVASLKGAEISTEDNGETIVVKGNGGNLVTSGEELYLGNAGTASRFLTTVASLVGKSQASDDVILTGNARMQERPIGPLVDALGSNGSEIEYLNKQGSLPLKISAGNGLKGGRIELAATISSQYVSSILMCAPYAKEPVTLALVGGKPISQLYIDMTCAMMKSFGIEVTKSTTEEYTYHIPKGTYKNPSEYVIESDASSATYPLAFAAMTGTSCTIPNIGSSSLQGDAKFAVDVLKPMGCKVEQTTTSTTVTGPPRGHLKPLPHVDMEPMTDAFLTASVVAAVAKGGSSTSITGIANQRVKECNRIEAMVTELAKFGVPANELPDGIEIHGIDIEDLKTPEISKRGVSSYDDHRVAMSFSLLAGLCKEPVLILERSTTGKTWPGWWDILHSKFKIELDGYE

Aro1DHQS = molecular target: T2, Aro1DHQS (Candida albicans, UniProt Q5AME2); assay: X-ray crystal structure, […] A; assay type: binding; details: co-crystallised with 2 mM NADH and 0.5 mM ZnCl2; one NADH per chain
T2 construct: gene ARO1; N-terminal DHQS domain, residues 1-387, expressed in E. coli BL21(DE3) Gold, His6-TEV tag cut; dimer in crystal; strain SC5314 printed for the full-length clone pLC1335
T2 sequence (Q5AME2 1-387): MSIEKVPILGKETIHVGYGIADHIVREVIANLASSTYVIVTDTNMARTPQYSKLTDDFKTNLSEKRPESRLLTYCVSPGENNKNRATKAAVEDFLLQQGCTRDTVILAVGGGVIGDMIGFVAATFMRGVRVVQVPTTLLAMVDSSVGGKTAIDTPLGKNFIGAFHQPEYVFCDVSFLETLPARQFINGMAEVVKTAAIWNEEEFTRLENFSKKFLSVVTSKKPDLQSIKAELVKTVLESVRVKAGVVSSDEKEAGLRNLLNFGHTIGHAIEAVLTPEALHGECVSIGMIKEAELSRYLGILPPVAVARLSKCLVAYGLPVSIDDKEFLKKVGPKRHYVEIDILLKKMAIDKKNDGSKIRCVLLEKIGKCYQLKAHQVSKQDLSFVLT

Compound	X-ray crystal structure, 1.85 A (Aro1EPSPS)	X-ray crystal structure, 1.85 A (Aro1DHQS)
O=C(O)C1=C[C@@H](OP(=O)(O)O)[C@@H](O)[C@H](O)C1 [S3P, shikimate-3-phosphate]	additional electron density corresponding to a molecule of this substrate in the cleft	–
NC(=O)C1=CN([C@@H]2O[C@H](COP(=O)(O)OP(=O)(O)OC[C@H]3O[C@@H](n4cnc5c(N)ncnc54)[C@H](O)[C@@H]3O)[C@@H](O)[C@H]2O)C=CC1 [NADH]	–	one NADH molecule bound to each copy of this fragment
